Laboratory results from patent publication US20230250077A1, “SULFONYLBENZAMIDE DERIVATIVE AND CONJUGATE THEREOF, PREPARATION METHOD THEREFOR AND USE THEREOF” (Jiangsu Hengrui Pharmaceuticals Co., Ltd., priority 2020, published 2023).

Legend:
RS4;11 cells = experiment: Inhibition of proliferation of RS4;11 cells (CellTiter-Glo); assay type: cell-based; settings: Homo sapiens, 72 h, 3 days, read-out: Inhibitory activity IC50 (nM) for the proliferation of RS4;11 cells
Method: (§1) In vitro inhibitory activity for the proliferation of RS4;11 cells and NCI-H146 cells was tested by the following method.
(§2) Reagents used in this experiment: RPMI-1640 medium (HyCLone, Cat #SH30243018); fetal bovine serum (Gibco, Cat #10099-141); pancreatin (Gibco, Cat #25200-072); Cell Titer-Glo (Promega, Cat #G7571).
(§3) Materials used: RS4;11 cells (Nanjing Kebai Biotechnology Co., Ltd, Cat #CBP60641); and NCI-H146 cells (ATCC, Cat #HTB-173).
(§4) The in vitro cell proliferation assay described below can determine the inhibitory activity of the test compounds for the proliferation of RS4;11 cells and NCI-H146 cells.
(§5) RS4;11 cells (or NCI-H146 cells) were cultured in an RPMI-1640 culture medium containing 10% FBS, and were passaged for 2-3 times a week in a passage ratio of 1:3 or 1:5. During passage, the cells were transferred to a centrifuge tube, and centrifuged at 1200 rpm for 3 min. The supernatant was discarded, and fresh culture medium was added to resuspend the cells. 90 μL of cell suspension was added to a 96-well cell culture plate, wherein RS4;11 cells and NCI-H146 cells were added at a density of 2.22×10^5 cells/mL. Only 100 μL of complete medium (RPMI-1640 medium containing 10% FBS) was added to the periphery of the 96-well plate. The plate was incubated in an incubator for 24 h (37° C., 5% CO2).
(§6) The test sample was diluted to a proper concentration gradient with dimethyl sulfoxide as required for the experiment. 5 μL of the solution of the test compound prepared in a gradient concentration was added to 95 μL of fresh culture medium and mixed uniformly, and then 10 μL of the culture medium containing the above compound was added to a cell culture plate. The cell culture plate was incubated in an incubator for 3 days (37° C., 5% CO2). 50 μL of CellTiter-Glo reagent was added into each well of the 96-well cell culture plate. The plate was let stand for 5-10 min away from the light at room temperature. The chemiluminescence signals were read by a microplate reader (BMG Labtech, model: PHERAstar FS) and the data were processed by GraphPad software.

BCL-xL = target: T1, BCL-xL (Homo sapiens, UniProt Q07817); experiment: Binding activity for BCL-xL (HTRF, biotin-labeled BIM); settings: His-tagged BCL-xL
T1 construct: purchased R&D 894-BX-050
T1 sequence (Q07817 whole entry): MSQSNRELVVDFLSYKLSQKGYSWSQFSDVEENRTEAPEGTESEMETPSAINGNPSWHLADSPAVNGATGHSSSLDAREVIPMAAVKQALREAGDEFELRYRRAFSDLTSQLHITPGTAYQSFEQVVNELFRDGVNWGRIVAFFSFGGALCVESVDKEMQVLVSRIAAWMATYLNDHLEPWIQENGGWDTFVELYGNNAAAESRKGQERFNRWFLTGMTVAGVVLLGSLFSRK
Method: In vitro BCL-xL-binding activity was tested by the following method.
Reagents used in this experiment: His-tagged BCL-xL protein (R&D, Cat #894-BX-050); biotin-labeled BIM protein (R&D, Cat #3526/1); binding buffer (cisbio, Cat #62DLBDDF); assay buffer (cisbio, Cat #62DB1FDG); MAb anti-6His-Eu cryptate (cisbio, Cat #61HI2KLA); and affinity streptomycin linked XL665 (cisbio, Cat #611SAXLA).
The in vitro binding assay described below can determine the binding activity of test compounds for BCL-xL.
The test compounds were dissolved in dimethyl sulfoxide and diluted to gradient concentrations as required for the experiment, and the compounds at various concentrations formulated in dimethyl sulfoxide were subjected to a 100-fold dilution with a binding buffer. BCL-xL was diluted to the corresponding concentration with a binding buffer, and added to a white 384-well plate at 4 μL/well. Then the diluted test compound was added to the white 384-well plate at 2 μL/well. The plate was incubated at 25° C. for 1 h after the mixture was uniformly mixed. Biotin-labeled BIM protein was diluted to the corresponding concentration with a binding buffer, and added to a white 384-well plate at 4 μL/well. The plate was incubated at 25° C. for 2 h after the mixture was uniformly mixed. The MAb anti-6His-Eu cryptate and the affinity streptomycin linked XL665 were each diluted to the corresponding concentration with an assay buffer, and added to a white 384-well plate at 5 μL/well. The plate was incubated at 25° C. for 2-4 h after the mixture was uniformly mixed. The signal values were read with the HTRF program in a microplate reader (BMG Labtech, model: PHERAstar FS).

NCI-H146 cells = experiment: Inhibition of proliferation of NCI-H146 cells (CellTiter-Glo); assay type: cell-based; settings: Homo sapiens, 72 h, 3 days, read-out: Inhibitory activity IC50 (nM) for the proliferation of NCI-H146 cells
Method: as §1, §2, §3, §4, §5, §6

[1] = test system: human acute lymphoblastic leukemia RS4;11 mouse subcutaneous xenograft tumor; experiment: Therapeutic effect on RS4;11 mouse subcutaneous xenograft tumor; assay type: in vivo; settings: NOD-Scid mice, RS4;11 xenograft; for Tolerability in tumor-bearing mice (weight loss) / Tumor rate TGI (%) inhibition: 10 mg/kg IV QW; for Tumor rate TGI (%) inhibition: D 20; for Mean tumor volume (mm^3) D 0: day 0, 10 mg/kg IV QW; for Mean tumor volume (mm^3) D 20: day 20, 10 mg/kg IV QW
Method: This experiment was performed to evaluate and compare the therapeutic effect of the compounds of the present disclosure on human acute lymphoblastic leukemia RS4;11 mouse subcutaneous xenograft tumor.
NOD-Scid mice, 5 weeks old, purchased from Beijing Huafukang Biotechnology Co., Ltd. Production license No.: SCXK (Beijing) 2019-0008; animal certification No.: 110322211100992176. Housing environment: SPF grade. 6 mice in a vehicle group, and 8 mice in a compound group.
5 mg of compound was added to 250 μL of DMSO and vortexed to provide a 20 mg/mL solution, which was diluted to the desired concentration with 30% hydroxypropyl-o-cyclodextrin (HP-3-CD, InnoStar Biotechnology Nantong Co., Ltd, Nantong).
Human acute lymphoblastic leukemia RS4;11 was purchased from American Type Culture Collection. RS4;11 cells were cultured in a 10 cm petri dish with an RPMI 1640 culture medium (Gibco) containing 10% fetal bovine serum (Gibco) and penicillin and streptomycin in an incubator at 37° C. containing 5% CO2. The cells were passaged twice a week, and then collected, counted and inoculated when in the exponential growth phase.
Each mouse was inoculated subcutaneously with 1×10^7 RS4;11 cells. When tumors grew to 100-200 mm^3, the mice were grouped according to tumor volume, intravenously (IV) injected with the drug once a week (QW) for a total of 4 times, at an injection volume of 0.1 mL/10 g body weight and a dose of 10 mg/kg.
The experimental index was to investigate the influence of the drug on the tumor growth, and the specific index was T/C % or tumor growth inhibition (TGI %).
Tumor diameters were measured twice a week with a vernier caliper and tumor volume (V) was calculated according to the following formula:
V=½×a×b^2 where a and b represent length and width, respectively.
T/C(%)=(T−T0)/(C−C0)×100,
where T and C represent the tumor volume of animals at the end of the experiment in the treatment group and control group, respectively;
T0 and C0 represent the tumor volume of animals at the beginning of the experiment in the treatment group and control group, respectively.
Tumor growth inhibition % (TGI %)=100−T/C(%).
When tumor started to regress, tumor growth inhibition % (TGI %)=100−(T−T0)/T0×100.
If the tumor had reduced volume compared with the initial volume, i.e., T<T0 or C<C0, it was defined as partial regression (PR) of tumor; if the tumor completely disappeared, it was defined as complete regression (CR) of tumor.

O=C(NS(=O)(=O)c1ccc(N[C@@H](CSc2ccccc2)C[C@@H]2CCCN2CCO)c(S(=O)(=O)C(F)(F)F)c1)c1ccc(N2CCC([C@@H](O)c3ccccc3-c3ccc(Cl)cc3)CC2)cc1 [Example 2-9, 4-(4-((R)-(4′-chloro-[1,1′-biphenyl]-2-yl)(hydroxy)methyl)piperidin-1-yl)-N-((4-(((R)-1-((S)-1-(2-hydroxyethyl)pyrrolidin-2-yl)-3-(phenylthio)propan-2-yl)amino)-3-((trifluoromethyl)sulfonyl)phenyl)sulfonyl)benzamide]
IC50 (RS4;11 cells): 1.8 nM
Ki (BCL-xL): 0.07 nM
IC50 (NCI-H146 cells): 7 nM
Tolerability in tumor-bearing mice (weight loss) [1]: well tolerate
Tumor rate TGI (%) inhibition [1]: 72%
Mean tumor volume (mm^3) D 0 [1]: 151.0 mm^3
Mean tumor volume (mm^3) D 20 [1]: 612.7 mm^3

CN(CCO)CC[C@H](CSc1ccccc1)Nc1ccc(S(=O)(=O)NC(=O)c2ccc(N3CCC([C@@H](O)c4ccccc4-c4ccc(C(F)(F)F)cc4)CC3)cc2)cc1S(=O)(=O)C(F)(F)F [Example 2-10, 4-(4-((R)-hydroxy(4′-(trifluoromethyl)-[1,1′-biphenyl]-2-yl)methyl)piperidin-1-yl)-N-((4-(((R)-4-((2-hydroxyethyl)(methyl)amino)-1-(phenylthio)butan-2-yl)amino)-3-((trifluoromethyl)sulfonyl)phenyl)sulfonyl)benzamide]
IC50 (RS4;11 cells): 1 nM
Ki (BCL-xL): 0.07 nM
IC50 (NCI-H146 cells): 4 nM
Tolerability in tumor-bearing mice (weight loss) [1]: well tolerate
Tumor rate TGI (%) inhibition [1]: 82%
Mean tumor volume (mm^3) D 0 [1]: 151.9 mm^3
Mean tumor volume (mm^3) D 20 [1]: 443.3 mm^3
